“Also recorded” adds a separate entry of the source.
Test system: animal model of form-deprivation myopia (FDM)
Test: form-deprivation myopia (FDM) model experiment on colorful guinea pigs
Conditions: for change value of ocular axial length: 0.05% eye drops once a day, after four weeks, compared with model control group; for body weight: during the experiment, among the groups
Protocol: An animal model of form-deprivation myopia (FDM) was prepared by using the monocular deprived (MD) method, i.e., covering one eye with an opaque eye patch to cause form-deprivation.
Models were established for each group of animals, and drugs were started on the first day of modeling. The model control group (FDM), positive control group (FDM+atropine), and bencycloquidium bromide group (FDM+the eye drops of bencycloquidium bromide) were given blank solvent, 0.05% atropine, and 0.05% eye drops of bencycloquidium bromide by instillation into the conjunctival sac, once a day, 20 L/eye, for a total of four weeks. Among them, the component of the blank solvent is water for injection; the components of 0.05% atropine using water for injection as solvent comprises 0.05% of atropine, 1.0% of polyvinyl alcohol, and 0.02% of benzalkonium chloride; and the osmotic pressure regulator is sodium chloride, and the osmolality of the eye drops is adjusted to 300 to 320 mOsmol/kg, and the pH regulator is phosphate buffer (NaH2PO4—Na2HPO4), which is used to adjust the pH value of the eye drops to 6.8.
The detection indicators were as follows: • (1) Animals are generally observed clinically once a day. • (2) Animal body weight is measured upon receipt, on the 7th and 14th days of quarantine, and twice a week after modeling. • (3) The anterior chamber depth, lens thickness, vitreous cavity depth and ocular axial length were checked before modeling and once a week after administration. • (4) The diopter was checked before modeling and once a week after administration.

Row | Compound | change value of ocular axial length (guinea pig FDM model) | body weight (guinea pig FDM model) | trend of diopter decline (guinea pig FDM model, 0.05% eye drops per day during four-week modeling period) | preventive effect on myopia (guinea pig FDM myopia model)
1 | CN1[C@@H]2CC[C@H]1C[C@@H](OC(=O)C(CO)c1ccccc1)C2 (stereo partly drawn) [atropine] | significantly reduced | no significant difference in body weight | – | –
2 | C[N+]12CCC(CC1)C(OCC(O)(c1ccccc1)C1CCCC1)C2 (stereo not drawn) [bencycloquidium bromide] | significantly reduced; also recorded: significantly inhibit | no significant difference in body weight | significantly inhibit the trend of diopter decline | significant preventive effect

Reference: patent publication US20260000654A1, “USE OF BENCYCLOQUIDIUM BROMIDE, ISOMER THEREOF AND DERIVATIVE THEREOF IN PREPARATION OF OPHTHALMIC FORMULATION” (Beijing Yingu Medicine Sci Techno Co., Ltd., priority 2023, published 2026)
